The results in this text go back to patent US5387109A (priority 1992, dated 1995).

Assay [1] deals with fructosylamine deglycase. Description: Substrate specificity of the enzyme to amadori compounds (colorimetric determination of hydrogen peroxide formed). Format: biochemical, Candida guilliermondii 7087. The method, then: 0.1 ml of 1 mM di-fructosyl-lysine (as dissolved in 0.05M phosphate buffer pH 7.0) is added to 0.4 ml of 0.05M phosphate buffer (pH 7.0) containing 0.3 mM 4-aminoantipyrine, 0.5 mM N-ethyl-N-(2-hydroxy-3-sulfopropyl)-m-toluidine (TOOS) and 2.0 U/ml peroxidase, and the temperature of the resulting system is equilibrated at 37° C. To this is added 0.06 ml of the enzyme solution having a suitable activity, whereupon the variation of the absorbance of the system is measured with a spectrophotometer (U-2000 Model, manufactured by Hitachi Ltd. ). From the calibration curve as formed from a standard solution containing a determined amount of hydrogen peroxide to indicate the relation between the variation of the absorbance and the amount of hydrogen peroxide, the amount of the hydrogen peroxide as formed in the test system is obtained. The amount of the enzyme of forming one micromole of hydrogen peroxide per one minute is defined to be one activity unit.
0.2 ml of 1 mM di-fructosyl-lysine (as dissolved in 0.05M phosphate buffer pH 7.0) is prepared, and the temperature of it is equilibrated at 37° C. To this is added 0.12 ml of the enzyme solution having a suitable activity and reacted for a suitable period of time at 37° C., and the reaction is stopped in a hot water bath of 100° C. To this is added 0.8 ml of 0.05M phosphate buffer (pH 7.0) containing 0.3 mM 4-aminoantipyrine, 0.5 mM TOOS and 2.0 U/ml peroxidase, whereupon the variation of the absorbance of the system is measured with a spectrophotometer (U-2000 Model, manufactured by Hitachi Ltd. ). From the calibration curve as formed from a standard solution containing a determined amount of hydrogen peroxide to indicate the relation between the variation of the absorbance and the amount of hydrogen peroxide, the amount of the hydrogen peroxide as formed in the test system is obtained. The amount of the enzyme of forming one micromole of hydrogen peroxide per one minute is defined to be one activity unit.
The enzyme catalyzes the reaction of decomposing amadori compounds of α-amino acids, β-amino acids, ε-amino acids, D-amino acids and amines to form a glucosone, hydrogen peroxide and the corresponding amino acid or amine. The enzyme not only decomposes amadori compounds of α-amino acids but also effectively acts on other amadori compounds having fructose as bonded to amino groups as positioned in other positions than the α-position of amino acids (for example, di-D-fructosyl-lysine, ε-D-fructosyl-L-lysine).
The concentration of the substrate as employed for the measurement was 2 mM, except for the use of 1 mM for di-D-fructosyl-lysine.
The data of the activity are relative values to the activity to D-fructosyl-glycine being 100.

Assay [2] concerns fructosylamine deglycase. Description: Influence by inhibitors on the enzyme. Format: biochemical, Candida guilliermondii 7087. Particulars: 2 mM inhibitor; 10 mM phosphate buffer pH 6.0; 37° C., 4 minutes. How it is done: The influence of a 2 mM inhibitor on the enzyme was as follows: […]

Regarding `O=C(O)[C@H](Cc1ccccc1)NCC(=O)[C@@H](O)[C@H](O)[C@H](O)CO` [D-fructosyl-L-phenylalanine], in the assay with fructosylamine deglycase [1] (substrate concentration 2 mM), the “Activity of the Enzyme (relative values to the activity to D-fructosyl-glycine being 100)” value is reported as 36.

For `CNCC(=O)[C@@H](O)[C@H](O)[C@H](O)CO` [D-fructosyl-methylamine], the “Activity of the Enzyme (relative values to the activity to D-fructosyl-glycine being 100)” value with fructosylamine deglycase [1] (substrate concentration 2 mM) amounted to 105.

Take `[Ni+2]` [Ni^2+]: the “Inhibition of the enzyme” value in the assay with fructosylamine deglycase [2] is listed as “strongly inhibited”.

Take `C[C@@H](NCC(=O)[C@@H](O)[C@H](O)[C@H](O)CO)C(=O)O` [D-fructosyl-D-alanine]: the “Activity of the Enzyme (relative values to the activity to D-fructosyl-glycine being 100)” value in the assay with fructosylamine deglycase [1] (substrate concentration 2 mM) amounted to 26.

For `CN(CC(=O)O)CC(=O)[C@@H](O)[C@H](O)[C@H](O)CO` [D-fructosyl-sarcosine], in the assay with fructosylamine deglycase [1] (substrate concentration 2 mM), the “Activity of the Enzyme (relative values to the activity to D-fructosyl-glycine being 100)” value came out at 63.

As for `O=C(O)CCNCC(=O)[C@@H](O)[C@H](O)[C@H](O)CO` [D-fructosyl-β-alanine], the “Activity of the Enzyme (relative values to the activity to D-fructosyl-glycine being 100)” value with fructosylamine deglycase [1] (substrate concentration 2 mM) worked out at 44.

As for `[Zn+2]` [Zn^2+], the “Inhibition of the enzyme” value in the assay with fructosylamine deglycase [2] is “strongly inhibited”.

With `[Cu+2]` [Cu^2+], the “Inhibition of the enzyme” value in the assay on fructosylamine deglycase [2] is recorded as “strongly inhibited”.

With `O=C(CN1CCC[C@H]1C(=O)O)[C@@H](O)[C@H](O)[C@H](O)CO` [D-fructosyl-L-proline], in the assay on fructosylamine deglycase [1] (substrate concentration 2 mM), the “Activity of the Enzyme (relative values to the activity to D-fructosyl-glycine being 100)” value is 1348.

As for `[Co+2]` [Co^2+], the “Inhibition of the enzyme” value with fructosylamine deglycase [2] is on record as “strongly inhibited”.

For `O=C(O)CNCC(=O)[C@@H](O)[C@H](O)[C@H](O)CO` [D-fructosyl-glycine], the “Activity of the Enzyme (relative values to the activity to D-fructosyl-glycine being 100)” value in the assay with fructosylamine deglycase [1] (substrate concentration 2 mM) is recorded as 100.

For the compound `O=C(O)c1cc[c]([Hg][Cl])cc1` [p-chloromercuribenzoic acid], the “Inhibition of the enzyme” value in the assay on fructosylamine deglycase [2] is “strongly inhibited”.

As to `[Mg+2]` [Mg^2+], in the assay on fructosylamine deglycase [2], the “Inhibition of the enzyme” value is recorded as “not inhibited”.

In the case of `C[C@H](NCC(=O)[C@@H](O)[C@H](O)[C@H](O)CO)C(=O)O` [D-fructosyl-L-alanine], in the assay with fructosylamine deglycase [1] (substrate concentration 2 mM), the “Activity of the Enzyme (relative values to the activity to D-fructosyl-glycine being 100)” value turned out to be 251.

As for D-fructosyl-polylysine, the “Activity of the Enzyme (relative values to the activity to D-fructosyl-glycine being 100)” value in the assay on fructosylamine deglycase [1] (substrate concentration 2 mM) worked out at 34.

Regarding Di-D-fructosyl-lysine, the “Activity of the Enzyme (relative values to the activity to D-fructosyl-glycine being 100)” value with fructosylamine deglycase [1] (substrate concentration 1 mM) is 3500.

Take `N[C@@H](CCCCNCC(=O)[C@@H](O)[C@H](O)[C@H](O)CO)C(=O)O` [D-fructosyl-L-lysine]: in the assay with fructosylamine deglycase [1] (substrate concentration 2 mM), the “Activity of the Enzyme (relative values to the activity to D-fructosyl-glycine being 100)” value is listed as 1386.

Consider `[N-]=[N+]=[N-].[Na+]` [NAN3], for which the “Inhibition of the enzyme” value in the assay on fructosylamine deglycase [2] is on record as “not inhibited”.
